GI50 and TGI data for 9 compounds are collected here from PubChem BioAssay (NCI).

Assay in all cases: NCI tumour cell line growth inhibition, 48 h
In test [1] the test system is ACHN renal.
The subject of test [2] is DU-145 prostate.
The test system of test [3] is KM12 colon.
For test [4], the system named is LOX IMVI melanoma.
In test [5] the test system is MOLT-4 leukemia.
Test [6] relates to SNB-19 CNS.
Test [7] concerns SR leukemia.
Test [8] deals with TK-10 renal.
Test [9] concerns UACC-257 melanoma.
In test [10] the test system is UACC-62 melanoma.

Each structure is given as a SMILES string. Values joined by “and” are separate entries in the source; they are usually repeats but may differ in a detail not shown here. Equal entries are not always repeated.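 Compound exposure: 48 hours, 5 concentrations, 96-well plates. At the GI50, growth is halved. The concentration for full growth arrest is given as TGI.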

As for `CN(Cc1ccc(Cl)cc1)c1ccc(CO)c(Cl)c1`, the GI50 in test [1] is 5.83 µM; in test [2], 10.8 µM; in test [3], 13 µM; in [4] it was 4.48 µM; in test [5], 18 µM; in test [6] it was 16.8 µM. The GI50 is 13.1 µM in test [7], 0.268 µM in test [8], 0.515 µM in test [9] and 0.33 µM in [10]. For the same compound, the TGI stood at 23.6 µM in test [1]; 25.5 µM in test [2]; 27.2 µM in [3]; 16.7 µM in test [4]; 66.2 µM in test [5]; 51.6 µM in test [6]. The TGI amounted to 54.8 µM in test [7], 1.68 µM in test [8], 2.45 µM in test [9] and 2.2 µM in test [10].
As for `CCOC(=O)/C(=N\OC)C(O)C(F)(F)F` (centres undefined), the TGI in test [1], in test [2], in test [3], in [4], in test [5] and in test [6] was over 100 µM throughout. Further, the TGI in test [7], in test [8], in test [9] and in test [10] was over 100 µM in each case.
Turning to `COc1cc(-n2cc(-c3ccc(F)cc3)nc2SCc2ccccc2)cc(OC)c1OC`, the GI50 in test [1] was over 100 µM; in [2] it was over 100 µM; in [3] it was over 100 µM; in test [4], over 100 µM; in [5], 89.2 µM; in test [6], over 100 µM. The GI50 in test [7], in test [8], in test [9] and in test [10] was over 100 µM each time. Besides, the TGI in test [1], in test [2], in [3], in test [4], in [5] and in test [6] was over 100 µM throughout. The TGI in test [7], in [8], in test [9] and in test [10] was over 100 µM throughout.
For `COc1ccc2c(c1O)C13CCN(C)C(C2)C1CCC1(C3)OCCO1` (centres undefined), the TGI in test [1], in test [2], in test [3], in test [4], in [5] and in test [6] was over 100 µM in each case. The TGI in test [7], in [8], in [9] and in [10] was over 100 µM throughout.
Consider `COC(=O)C1=C(C)NC(C)=C(C(=O)OC)C1/C=C(\Cl)c1ccc(Cl)c(Cl)c1`, for which the GI50 in test [1] is 12.8 µM; in test [2] it was 16.5 µM; in test [3], 15.4 µM; in test [4], 11.4 µM; in [5] it was 3.69 µM; in [6] it was 18.8 µM. In addition, the GI50 is 3.3 µM in test [7], 14.8 µM in [8], 18 µM in [9] and 6.42 µM in test [10]. Further, the TGI in [1] was determined as 25.5 µM; in [2], 32 µM; in test [3], 31.5 µM; in test [4] it was 23.5 µM; in test [5], 27.6 µM; in test [6] it was 41.6 µM. The TGI in [7] is 22.4 µM; in test [8], 30.3 µM; in [9] it was 36.1 µM; in test [10], 20.3 µM.
For the compound `S=C(N/N=C(/c1ccccc1)c1ccccn1)N1CCCCC1`, the GI50 was under 0.001 µM in test [1]; 1.11 µM in test [2]; 0.00123 µM in test [3]; under 0.001 µM in test [5]; 1.1 µM in test [6]; under 0.001 µM in test [7]. Besides, the GI50 is under 0.001 µM in [9] and 0.965 µM in test [10]. Further, the TGI in test [1] was 1.49 µM and 1.46 µM; in [2], 2.32 µM and 2.87 µM; in test [3] it was 1.79 µM and 2.11 µM; in test [4], 1.95 µM and 1.32 µM; in test [6], 2.9 µM and 5.49 µM; in test [7] it was under 0.001 µM. The TGI in test [8] was 1.97 µM; in test [9], 1.04 µM and 1.16 µM; in [10], 3.16 µM.
Turning to `Cc1cc2cc3cc(C)c(N(C)C)cc3[n+](C)c2cc1N(C)C`, the GI50 in [1] is 3.69 µM; in [2] it was 4.87 µM; in test [3] it was 2.72 µM; in test [4], 3.14 µM; in test [5] it was 3.58 µM; in [6] it was 4.22 µM. The GI50 in [7] was 3.16 µM; in test [8], 5.19 µM; in test [9], 4.73 µM; in [10], 4.91 µM. The TGI was over 100 µM in [1]; 31.9 µM in [2]; 11.3 µM in test [3]; 40.8 µM in test [4]; over 100 µM in [5]; over 100 µM in test [6]. Further, the TGI in [7] is over 100 µM; in test [8] it was 58.4 µM; in [9], 37.7 µM; in test [10], 23.6 µM.
Regarding `COc1ccc(-n2cc(-c3cc(OC)c(OC)c(OC)c3)nc2SCc2ccccc2)cc1`, the GI50 in [1] was 78.8 µM; in [2], over 100 µM; in test [3], 60 µM; in test [4] it was 74.7 µM; in [5] it was 9.03 µM; in test [6], over 100 µM. For the same compound, the GI50 in test [7] was 54 µM; in test [8] it was over 100 µM; in [10], 42.2 µM. Moreover, the TGI in test [1], in test [2], in test [3], in [4], in test [5] and in test [6] was over 100 µM throughout. In addition, the TGI in test [7], in [8] and in [10] was over 100 µM in each case.
Regarding `Nc1nc(N)c(Cn2ccnc2)c(=O)[nH]1`, the TGI in [1], in [2], in test [3], in [4], in test [6] and in test [7] was over 100 µM throughout. Moreover, the TGI in test [8], in test [9] and in test [10] was over 100 µM in each case.
